4 compounds from patent EP0123528B1, “Pharmaceutical composition for the treatment of hair loss” (Mortimer, Christopher Harry, Dr., priority 1983, dated 1984) can be followed below.

The test system of one data set is common baldness in men. The data set can be described thus: Unit Area Trichogram (hair density). In kind it is in vivo. The settings on record: for producing hair growth in common baldness: alone: oestradiol benzoate 0.1%, medroxyprogesterone acetate 0.1%, 3,3-,5-triiodo-L-thyronine 20 pg in 3 ml of solution, or any two of the three.
Data set [1] can be described thus: Hormone results during treatment. The data set is classed as in vivo. The conditions noted are these: patient, after 6 months of systemic treatment. The method, then: Initially […] began treatment with medroxyprogesterone acetate starting with 5 mg daily increasing to 40 mg daily at 6 months.
At this time the following hormone results were obtained:
After 6 months of the same dose of systemic medroxyprogesterone acetate plus Trichogen II the following results were obtained: […]

The nature of data set [2]: Semen analysis during treatment. The data set is classed as in vivo, patient. The conditions noted are these: after 6 months of systemic treatment. How it is done: Initially […] began treatment with medroxyprogesterone acetate starting with 5 mg daily increasing to 40 mg daily at 6 months. At this time the following hormone results were obtained: After 6 months of the same dose of systemic medroxyprogesterone acetate plus Trichogen II the following results were obtained: […]

As for `N[C@H](Cc1cc(I)c(Oc2ccc(O)c(I)c2)c(I)c1)C(=O)O` [3,3-,5-triiodo-D-thyronine free acid, 3,3-,5-Triiodo-D-thyronine free acid], the “substitute for the -L-form of 3,3-,5-triiodothyronine” value in the data set with common baldness in men (topical, in any concentration) is on record as “not an effective substitute”.

Regarding `N[C@@H](Cc1cc(I)c(Oc2ccc(O)c(I)c2)c(I)c1)C(=O)O` [3,3-,5-triiodo-L-thyronine], in the data set with common baldness in men (topical), the “producing hair growth in common baldness” value is “not effective”.

On to `CC(=O)O[C@]1(C(C)=O)CC[C@H]2[C@@H]3C[C@H](C)C4=CC(=O)CC[C@]4(C)[C@H]3CC[C@@]21C` [medroxyprogesterone acetate], for which the “Meaningful hair density (hairs greater than 40 µm in diameter/cm^2), Frontal” value in the data set with common baldness in men (patient, after 6 months of systemic treatment, before treatment 215, n 232—340) is listed as 179 (n 232—340) hairs/cm^2. Moreover, the “Meaningful hair density (hairs greater than 40 µm in diameter/cm^2), Occipital” value in the data set with common baldness in men (patient, after 6 months of systemic treatment, before treatment 246, n 213—317) is on record as 271 (n 213—317) hairs/cm^2. The “Total hair density, Occipital” value in the data set with common baldness in men (patient, after 6 months of systemic treatment, before treatment 251, n 261—356) is 280 (n 261—356) hairs/cm^2. Also, the “Total hair density, Frontal” value in the data set with common baldness in men (patient, after 6 months of systemic treatment, before treatment 263, n 256—393) is 248 (n 256—393) hairs/cm^2. Moreover, the “producing hair growth in common baldness” value in the data set with common baldness in men (topical) is reported as “not effective”. In data set [1] (5 mg daily increasing to 40 mg daily, n 10—32), this compound gave a Testosterone of 27.0 nmol/L. In data set [1] (5 to 40 mg daily, n 0.7—2.7), this compound gave a Dihydrotestosterone of 2.1 nmol/L. In data set [1] (5 to 40 mg daily, n 18—40), this compound yielded an SHBG of 36.0 nmol/L. In data set [1] (5 to 40 mg daily, n 50—180), the Oestradiol turned out to be 171.0 pmol/L. Also, the “17 Alpha hydroxyprogesterone” value in data set [1] (n 0.6—6.0) was found to be 10.1 nmol/L. Also, in data set [1] (n 3.1—10.0), the Androstenedione turned out to be 4.9 nmol/L. Also, in data set [1] (n 5—9), the “Dehydroepiandrosterone sulphate (DHEAS)” value was found to be 9.4 µmol/L. Also, the “Semen analysis: Total count” value in data set [2] (patient (previous orchidopexy), n greater than 80 millions) is recorded as 5 millions. Also, in data set [2] (patient, n greater than 60%), the “Semen analysis: Motility” value was found to be 10%. Also, the “Semen analysis: Abnormal forms” value in data set [2] (patient, n up to 25%) was 35%.

`C[C@]12CC[C@@H]3c4ccc(OC(=O)c5ccccc5)cc4CC[C@H]3[C@@H]1CC[C@@H]2O` [oestradiol benzoate]: the “producing hair growth in common baldness” value in the data set with common baldness in men (topical) is recorded as “not effective”.
